The numbers were not newly measured in patent US11213557B2, “Lactobacillus plantarum CCFM1019, fermented foods thereof, and application thereof in preparation of medicine for promoting excretion of plasticizers and metabolites thereof from body” (priority 2018, dated 2022), which cites them from elsewhere.

Each structure is given as a SMILES string. A value given as a limit tells only on which side of the number the result lay.

The mark [1] stands for this setting: human body, 24 h after DEHP enters the body.

On to `CCCCC(CC)COC(=O)c1ccccc1C(=O)OCC(CC)CCCC` (centres unmarked) [DEHP, bis(2-ethylhexyl) phthalate], for which the Half-life (DEHP stored in adipose tissue) is given as 156 h. For the same compound, where the note is “human body”, the “Absorption and distribution period” value is 4 to 8 h; the “Time within which most of the DEHP is completely metabolized” value was not above 24 h. Under setting [1], the “DEHP converted into five secondary metabolites and excreted in urine” value is reported as “about 67%”; the “DEHP directly excreted in urine” value was “less than 10%”.
